Source: patent publication US20230017045A1, “PYRIDINE AND PYRIMIDINE CARBOXYLATE HERBICIDES AND METHODS OF USE THEREOF” (Dow AgroSciences LLC, priority 2017, published 2023)
Where two headings read alike, the source gives them in different places.

System: test plant species
Experiment: Post-emergent herbicidal activity test (greenhouse, foliar spray, visual growth reduction)
Format: in vivo
Settings: post-emergence, 336 h, 140 g ai/ha
Outline: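 Plants grown in greenhouse (15 h photoperiod, 23-29° C day/22-28° C night) to first or second true leaf stage were sprayed overhead with compound in acetone/water/isopropanol/DMSO/crop oil/X-77 carrier at 187 L/ha. Injury was scored visually after 14 d on a 0-100% scale versus solvent-blank and untreated controls.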

[1] = ECHCG: barnyardgrass (Echinochloa crus-galli), 14 days after application, read-out: Visual Growth Reduction (%) 14 Days After Application, ECHCG
[2] = IPOHE: ivy-leaf morning glory (Ipomoea hederacea), 14 days after application, read-out: Visual Growth Reduction (%) 14 Days After Application, IPOHE
[3] = KCHSC: kochia (Bassia scoparia), 14 days after application, read-out: Visual Growth Reduction (%) 14 Days After Application, KCHSC
[4] = ORYSA: rice (Oryza sativa), 14 days after application, read-out: Visual Growth Reduction (%) 14 Days After Application, ORYSA
[5] = SETFA: giant foxtail (Setaria faberi), 14 days after application, read-out: Visual Growth Reduction (%) 14 Days After Application, SETFA
[6] = SORVU: grain sorghum (Sorghum vulgare), 14 days after application, read-out: Visual Growth Reduction (%) 14 Days After Application, SORVU
[7] = STEME: common chickweed (Stellaria media), 14 days after application, read-out: Visual Growth Reduction (%) 14 Days After Application, STEME
[8] = TRZAS: wheat, spring (Triticum aestivum), 14 days after application, read-out: Visual Growth Reduction (%) 14 Days After Application, TRZAS
[9] = blackgrass (Alopecurus myosuroides), 14 Days After Application, read-out: Visual Growth Reduction (%) ALOMY
[10] = canada thistle (Cirsium arvense), 14 Days After Application, read-out: Visual Growth Reduction (%) CIRAR
[11] = crabgrass (Digitaria sanguinalis), 14 Days After Application, read-out: Visual Growth Reduction (%) DIGSA
[12] = lambsquarters (Chenopodium album), 14 Days After Application, read-out: Visual Growth Reduction (%) CHEAL
[13] = redroot pigweed (Amaranthus retroflexus), 14 Days After Application, read-out: Visual Growth Reduction (%) AMARE
[14] = wild oat (Avena fatua), 14 Days After Application, read-out: Visual Growth Reduction (%) AVEFA
[15] = yellow nutsedge (Cyperus esculentus), 14 Days After Application, read-out: Visual Growth Reduction (%) CYPES
[16] = ALOMY: blackgrass (Alopecurus myosuroides), 14 days after application, read-out: Visual Growth Reduction (%) 14 Days After Application, ALOMY
[17] = AMARE: redroot pigweed (Amaranthus retroflexus), 14 days after application, read-out: Visual Growth Reduction (%) 14 Days After Application, AMARE
[18] = AVEFA: wild oat (Avena fatua), 14 days after application, read-out: Visual Growth Reduction (%) 14 Days After Application, AVEFA
[19] = CHEAL: lambsquarters (Chenopodium album), 14 days after application, read-out: Visual Growth Reduction (%) 14 Days After Application, CHEAL
[20] = CIRAR: canada thistle (Cirsium arvense), 14 days after application, read-out: Visual Growth Reduction (%) 14 Days After Application, CIRAR
[21] = CYPES: yellow nutsedge (Cyperus esculentus), 14 days after application, read-out: Visual Growth Reduction (%) 14 Days After Application, CYPES
[22] = DIGSA: crabgrass (Digitaria sanguinalis), 14 days after application, read-out: Visual Growth Reduction (%) 14 Days After Application, DIGSA

SMILES	pest or weed control at 140 g/ha [1] [%]	pest or weed control at 140 g/ha [2] [%]	pest or weed control at 140 g/ha [3] [%]	pest or weed control at 140 g/ha [4] [%]	pest or weed control at 140 g/ha [5] [%]	pest or weed control at 140 g/ha [6] [%]	pest or weed control at 140 g/ha [7] [%]	pest or weed control at 140 g/ha [8] [%]	pest or weed control at 140 g/ha [9] [%]	pest or weed control at 140 g/ha [10] [%]	pest or weed control at 140 g/ha [11] [%]	pest or weed control at 140 g/ha [12] [%]	pest or weed control at 140 g/ha [13] [%]	pest or weed control at 140 g/ha [14] [%]	pest or weed control at 140 g/ha [15] [%]	pest or weed control at 140 g/ha [16] [%]	pest or weed control at 140 g/ha [17] [%]	pest or weed control at 140 g/ha [18] [%]	pest or weed control at 140 g/ha [19] [%]	pest or weed control at 140 g/ha [20] [%]	further results
COC(=O)c1nc(-c2ccc(Cl)c(C)c2F)ccc1Cl [F272, Methyl 3-chloro-6-(4-chloro-2-fluoro-3-methylphenyl) picolinate]	0 to 29	0 to 29	0 to 29	0 to 29	0 to 29	0 to 29	0 to 29	0 to 29	0 to 29	0 to 29	0 to 29	0 to 29	0 to 29	0 to 29	0 to 29	–	–	–	–	–	–
COC(=O)c1nc(-c2cc(C(F)(F)F)ccc2Cl)ccc1Cl [F38, Methyl 3-chloro-6-(2-chloro-5-(trifluoromethyl)phenyl)picolinate]	0 to 29	0 to 29	0 to 29	0 to 29	0 to 29	0 to 29	0 to 29	0 to 29	–	–	–	–	–	–	–	0 to 29	0 to 29	0 to 29	0 to 29	0 to 29	pest or weed control at 140 g/ha [21]: 0 to 29%; pest or weed control at 140 g/ha [22]: 0 to 29%
COC(=O)c1nc(-c2cccc(F)c2OC)c(F)cc1Cl [F264, Methyl 3-chloro-5-fluoro-6-(3-fluoro-2-methoxyphenyl) picolinate]	0 to 29	95 to 100	0 to 29	0 to 29	0 to 29	0 to 29	0 to 29	0 to 29	0 to 29	30 to 44	0 to 29	75 to 84	0 to 29	0 to 29	0 to 29	–	–	–	–	–	–
COC(=O)c1nc(-c2ccc(C(F)(F)F)cc2C)ccc1Cl [F29, Methyl 3-chloro-6-(2-methyl-4-(trifluoromethyl)phenyl)picolinate]	0 to 29	95 to 100	0 to 29	0 to 29	0 to 29	60 to 74	0 to 29	0 to 29	–	–	–	–	–	–	–	0 to 29	60 to 74	0 to 29	60 to 74	0 to 29	pest or weed control at 140 g/ha [21]: 0 to 29%; pest or weed control at 140 g/ha [22]: 45 to 59%
COc1cc2c(cc1-c1ccc(Cl)c(C(=O)O)n1)OC(F)(F)O2 [F356, 3-Chloro-6-(2,2-difluoro-6-methoxybenzo[d][1,3]dioxol-5-yl)picolinic acid]	0 to 29	95 to 100	0 to 29	0 to 29	0 to 29	30 to 44	0 to 29	0 to 29	0 to 29	0 to 29	0 to 29	60 to 74	0 to 29	0 to 29	0 to 29	–	–	–	–	–	–
COC(=O)c1nc(-c2ccc(C(F)(F)F)cc2Cl)c(F)cc1Cl [F107, methyl 3-chloro-6-(2-chloro-4-(trifluoromethyl)phenyl)-5-fluoropicolinate]	0 to 29	95 to 100	60 to 74	0 to 29	45 to 59	95 to 100	0 to 29	45 to 59	–	–	–	–	–	–	–	30 to 44	95 to 100	45 to 59	95 to 100	95 to 100	pest or weed control at 140 g/ha [21]: 0 to 29%; pest or weed control at 140 g/ha [22]: 95 to 100%
COC(=O)c1nc(-c2ccc(C(F)(F)F)nc2)c(Cl)cc1Cl [F99, methyl 3,5-dichloro-6′-(trifluoromethyl)-[2,3′-bipyridine]-6-carboxylate]	0 to 29	0 to 29	0 to 29	0 to 29	0 to 29	0 to 29	0 to 29	0 to 29	–	–	–	–	–	–	–	0 to 29	0 to 29	0 to 29	0 to 29	0 to 29	pest or weed control at 140 g/ha [21]: 0 to 29%; pest or weed control at 140 g/ha [22]: 0 to 29%
COC(=O)c1cc2c(c(-c3nc(C(=O)OC)c(Cl)cc3F)c1)OC(F)(F)O2 [F244, Methyl 3-chloro-6-(2,2-difluoro-6-(methoxycarbonyl)benzo[d][1,3]dioxol-4-yl)-5-fluoropicolinate]	0 to 29	0 to 29	0 to 29	0 to 29	0 to 29	0 to 29	0 to 29	0 to 29	0 to 29	0 to 29	0 to 29	60 to 74	0 to 29	0 to 29	0 to 29	–	–	–	–	–	–
COC(=O)c1nc(-c2ccc(Cl)c(CF)c2F)ccc1Cl [F274, Methyl 3-chloro-6-(4-chloro-2-fluoro-3-(fluoromethyl)phenyl) picolinate]	0 to 29	0 to 29	0 to 29	0 to 29	0 to 29	0 to 29	0 to 29	0 to 29	0 to 29	60 to 74	0 to 29	0 to 29	0 to 29	0 to 29	0 to 29	–	–	–	–	–	–
COC(=O)c1nc(-c2ccc(Cl)c(C(F)F)c2Cl)ccc1Cl [F281, Methyl 3-chloro-6-(2,4-dichloro-3-(difluoromethyl)phenyl)picolinate]	0 to 29	85 to 94	0 to 29	0 to 29	30 to 44	85 to 94	0 to 29	0 to 29	0 to 29	0 to 29	0 to 29	85 to 94	75 to 84	0 to 29	0 to 29	–	–	–	–	–	–
